This is an account of results in US10487121B2, “D-peptide inhibitors of HIV entry and methods of use” (priority 2016, dated 2019).

Like-named read-outs stand apart in the source and are kept apart here.

In data set [1] the target is JRFL (R5) luciferase reporter pseudovirions on HOS-CD4-CCR5. The note with it: values marked * from Francis, et al. Bioconjugates, read-out: Antiviral potency JRFL (IC50); cited from earlier work.
In data set [2] the target is HXB2 (X4) luciferase reporter pseudovirions on HOS-CD4-CXCR4. The conditions noted are these: values marked * from Francis, et al. Bioconjugates, read-out: Antiviral potency HXB2 (IC50); cited from earlier work.
Data set [3] can be described thus: Rodent pharmacokinetics of PIE12-trimer and conjugates (Table 3 protocol). The data set is classed as in vivo, Sprague Dawley rats. The conditions noted are these: rats, 1.0 mg/kg, plasma, median; for half-life: read-out: T1/2 (converted). The method, then:
At each timepoint, plasma was obtained using lithium heparin.
Samples were spiked with an internal standard then precipitated with two volumes of 98% acetonitrile/2% Formic acid. Supernatants were analyzed by LC/MS/MS using an Agilent HPLC system (Waters X-Bridge BEH C18 column) paired to an AB Sciex API 3000 triple-quad mass spectrometer using MRM methods. Lipid conjugates required lower source temperatures (300° C. vs 500° C.) for improved reproducibility.

Usually IC50 stands for the concentration needed to halve the response being measured. The AUC(0-inf) is total exposure, with the tail of the curve extrapolated. Higher therefore signals high exposure. The term Cmax denotes the highest concentration seen after dosing. In general, Tmax refers to the time at which the peak concentration occurs. For `CC(=O)N[C@H](Cc1c[nH]cn1)C(=O)N1CCC[C@@H]1C(=O)N[C@@H]1CSSC[C@H](C(=O)N[C@H](CCC(=O)O)C(=O)N[C@H](CC(C)C)C(=O)NCC(=O)N[C@H](CCCCNC(=O)CCOCCOCCOCCOCCNC(=O)CCOCC(N)(COCCC(=O)NCCOCCOCCOCCOCCC(=O)NCCCC[C@@H](NC(=O)CNC(=O)[C@@H](CC(C)C)NC(=O)[C@@H](CCC(=O)O)NC(=O)[C@H]2CSSC[C@@H](NC(=O)[C@H]3CCCN3C(=O)[C@@H](Cc3c[nH]cn3)NC(C)=O)C(=O)N[C@H](CC(=O)O)C(=O)N[C@H](Cc3ccc(O)cc3)C(=O)N3CCC[C@@H]3C(=O)N[C@H](CCC(=O)O)C(=O)N[C@H](Cc3c[nH]c4ccccc34)C(=O)N[C@H](CCC(N)=O)C(=O)N[C@H](Cc3c[nH]c4ccccc34)C(=O)N[C@H](CC(C)C)C(=O)N2)C(N)=O)COCCC(=O)NCCOCCOCCOCCOCCC(=O)NCCCC[C@@H](NC(=O)CNC(=O)[C@@H](CC(C)C)NC(=O)[C@@H](CCC(=O)O)NC(=O)[C@H]2CSSC[C@@H](NC(=O)[C@H]3CCCN3C(=O)[C@@H](Cc3c[nH]cn3)NC(C)=O)C(=O)N[C@H](CC(=O)O)C(=O)N[C@H](Cc3ccc(O)cc3)C(=O)N3CCC[C@@H]3C(=O)N[C@H](CCC(=O)O)C(=O)N[C@H](Cc3c[nH]c4ccccc34)C(=O)N[C@H](CCC(N)=O)C(=O)N[C@H](Cc3c[nH]c4ccccc34)C(=O)N[C@H](CC(C)C)C(=O)N2)C(N)=O)C(N)=O)NC(=O)[C@@H](CC(C)C)NC(=O)[C@@H](Cc2c[nH]c3ccccc23)NC(=O)[C@@H](CCC(N)=O)NC(=O)[C@@H](Cc2c[nH]c3ccccc23)NC(=O)[C@@H](CCC(=O)O)NC(=O)[C@H]2CCCN2C(=O)[C@@H](Cc2ccc(O)cc2)NC(=O)[C@@H](CC(=O)O)NC1=O` [PIE12-trimer], the IC50 in data set [1] was 2.1 ± 0.28 nM. Also, the IC50 in data set [2] was 0.72 ± 0.04 nM. For the same molecule, in data set [3] (rat, in vivo, IV), the AUC(0-inf) came to 0.168 µM·h, the C0 amounted to 275 nM and the half-life was 33 min. For the same molecule, in data set [3] (rat, in vivo, IV, read-out: Cl (obs) (converted)), the clearance is 13.9 mL/min/kg. The Vd in data set [3] (rat, in vivo, IV, read-out: Vz (obs)) turned out to be 0.7 L/kg. Besides, in data set [3] (rat, in vivo, SC), the AUC(0-inf) was determined as 0.208 µM·h, the Cmax came out at 80 nM, the time of peak concentration (Tmax) amounted to 30 min and the half-life is 48.6 min. For the same molecule, the F in data set [3] (SC) was 96%.
